In BindingDB's records for doi:10.7270/Q2M61NDW (n/a, 1996):

Biological target: T1, Papain (Carica papaya, UniProt P00784)
T1 sequence (P00784 whole entry): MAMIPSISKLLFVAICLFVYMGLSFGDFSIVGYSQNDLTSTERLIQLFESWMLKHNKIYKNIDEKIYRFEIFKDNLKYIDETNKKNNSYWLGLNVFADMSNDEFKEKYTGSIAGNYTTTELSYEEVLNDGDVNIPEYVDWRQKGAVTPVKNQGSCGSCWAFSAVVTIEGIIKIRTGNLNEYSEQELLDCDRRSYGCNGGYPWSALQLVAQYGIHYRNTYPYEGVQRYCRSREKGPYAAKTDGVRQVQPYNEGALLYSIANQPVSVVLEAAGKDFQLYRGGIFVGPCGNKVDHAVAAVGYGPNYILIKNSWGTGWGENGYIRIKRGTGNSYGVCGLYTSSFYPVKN
Assay: Pseudo-first order rate constant for inhibition of thiol-dependent papain enzyme

First: CN(N=O)c1cccc(O)c1
Second: CN(N=O)c1ccccc1
The koff of the first is 1.6-fold lower: 0.0006 s⁻¹ for the first, 0.00095 s⁻¹ for the second.

Going from `CN(N=O)c1ccc(Cl)cc1` to `CN(N=O)c1ccccc1O`, the koff falls from 0.000283 s⁻¹ to 0.000183 s⁻¹ (1.5-fold).

With `CN(N=O)c1ccccc1[N+](=O)[O-]` the koff was 0.000433 s⁻¹.
